In US11198695B2, “Fused ring derivative having MGAT-2 inhibitory activity” (Shionogi & Co., Ltd., priority 2017, dated 2021) one finds IC50 data, which are given here for 59 compounds.

Read-outs that look alike come from different tables or passages of the source.

This experiment concerns the target recombinant human MGAT2 (Homo sapiens (Human), UniProt Q3SYC2). As to the kind of experiment: Measurement of human MGAT2 inhibitory activity. In kind it is biochemical. Put shortly: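 Membrane fraction of Sf9 cells expressing N-terminally Flag-tagged full-length human MGAT2, incubated 1 h at room temperature in 100 mmol/L phosphate pH 7.4 with 2 mmol/L DTT. The substrate solution held 30 μmol/L 2-oleoylglycerol and 10 μmol/L oleoyl-CoA. Diolein product was quantified by RapidFire ESI Q-TOF MS against diolein-d5 internal standard; % inhibition was set relative to with/without-enzyme controls.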

Setting [1] is: read-out: IC50 (concentration exhibiting 50% enzyme inhibition), Table 52.
[2] abbreviates: read-out: IC50 (concentration exhibiting 50% enzyme inhibition), Table 53.

Chain of recombinant human MGAT2 (Q3SYC2 whole entry): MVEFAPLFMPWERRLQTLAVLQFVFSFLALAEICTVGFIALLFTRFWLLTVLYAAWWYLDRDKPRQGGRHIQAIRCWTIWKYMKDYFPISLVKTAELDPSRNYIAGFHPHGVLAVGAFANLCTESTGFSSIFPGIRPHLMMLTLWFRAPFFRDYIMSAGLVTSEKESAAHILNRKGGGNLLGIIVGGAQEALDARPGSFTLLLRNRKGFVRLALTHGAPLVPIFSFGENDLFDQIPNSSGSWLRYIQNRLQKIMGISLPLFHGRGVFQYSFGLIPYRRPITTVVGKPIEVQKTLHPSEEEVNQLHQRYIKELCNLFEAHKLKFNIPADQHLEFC

In the case of `O=C(Nc1c2c(nn1CCC1CC1)C[C@]1(CCc3cc(OCC(F)(F)F)ccc31)NC2=O)c1ccncn1` [Compound I-199], under setting [1], the IC50 amounted to 400 nM.
Consider `Cc1ccc(-n2nc3c(c2NC(=O)CS(C)(=O)=O)C(=O)N[C@@]2(CCc4ccccc42)C3)nc1` [II-165], for which the IC50 under setting [2] was 26.9 nM.
As for `CCc1ccc(-n2nc3c(c2NC(=O)CS(C)(=O)=O)C(=O)N[C@@]2(CCc4cc(OCCCC(F)(F)F)ccc42)C3)cc1` [Compound I-139], the IC50 under setting [1] was 4.1 nM.
The same measure, in the same setting: the figure for `O=C1N[C@@]2(CCc3cc(OCC(F)(F)F)ccc32)Cc2nn(CCC3CC3)c(C(=O)NS(=O)(=O)c3ccccc3)c21` [Compound I-111] is 190 nM.
Take `CS(=O)(=O)CC(=O)Nc1c2c(nn1CCC1CC1)C[C@@]1(CCc3cc(N4CC(F)C4)ccc31)NC2=O` [II-34]: the IC50 under setting [2] worked out at 41 nM.
Same read-out and setting: the figure for `COCCCn1nc2c(c1NC(=O)CS(C)(=O)=O)C(=O)N[C@]1(CCc3cc(OCC(F)(F)F)ccc31)C2` [II-21] is 17 nM; for `Cc1ccc(-n2nc3c(c2NC(=O)CS(C)(=O)=O)C(=O)N[C@](C)(c2ccc(OCC(F)F)cc2F)C3)nc1` [II-206] it is 5.72 nM; for `CS(=O)(=O)CC(=O)Nc1c2c(nn1CCC1CC1)C[C@@]1(CCc3cc(N4CC(C(F)F)C4)ccc31)NC2=O` [II-40] it is 22 nM.
Regarding `Cc1ccc(-n2nc3c(c2NC(=O)CS(C)(=O)=O)C(=O)N[C@@]2(CCc4cc(Cl)ccc42)C3)nn1` [II-307], the IC50 under setting [2] is 6.19 nM.
Take `CS(=O)(=O)CC(=O)Nc1c2c(nn1CCC1CC1)C[C@](c1ccc(OCC(F)(F)F)cc1F)(C(F)(F)F)NC2=O` [Compound I-171]: the IC50 under setting [1] is 12 nM.
The same measure, in the same setting: the figure for `CS(=O)(=O)CC(=O)Nc1c2c(nn1CCC1CC1)C[C@]1(CCc3cc(OCCCC(F)(F)F)ccc31)NC2=O` [Compound I-2] is 1.35 nM.
Take `CS(=O)(=O)CC(=O)Nc1c2c(nn1CCc1ccc(F)cc1)C[C@]1(CCc3cc(OCC(F)(F)F)ccc31)NC2=O` [Compound I-261]: under setting [1], the IC50 is 16 nM.
Take `CS(=O)(=O)CC(=O)Nc1c2c(nn1C1CCCCC1)C[C@]1(CCc3cc(OCCCC(F)(F)F)ccc31)NC2=O` [Compound I-40]: the IC50 under setting [1] was 18 nM.
Still for that read-out and setting: the figure for `CS(=O)(=O)CC(=O)Nc1c2c(nn1-c1ccc(C#N)cc1)C[C@]1(CCc3cc(F)cc(F)c31)NC2=O` [Compound I-164] is 86 nM.
`CC(C)(O)CNC(=O)c1c2c(nn1-c1ccc(C#N)cn1)C[C@]1(CCc3cc(OCC(F)(F)F)ccc31)NC2=O` [II-135]: the IC50 under setting [2] stood at 60.6 nM.
Consider `CS(=O)(=O)CC(=O)Nc1c2c(nn1-c1ccc(C#N)cn1)C[C@]1(CCc3cc(F)cc(F)c31)NC2=O` [Compound I-284], for which the IC50 under setting [1] is 9.35 nM.
`O=C(NCc1c2c(nn1CCC1CC1)C[C@]1(CCc3cc(OCC(F)(F)F)ccc31)NC2=O)c1cnco1` [Compound I-159]: the IC50 under setting [1] worked out at 600 nM.
On the same count and under the same terms, the figure for `N#CCC(=O)Nc1c2c(nn1CCC1CC1)C[C@]1(CCc3cc(OCCCC(F)(F)F)ccc31)NC2=O` [Compound I-25] is 49 nM.
`CS(=O)(=O)CC(=O)Nc1c2c(nn1CCCOC(F)F)C[C@@]1(CCc3cc(CCC(F)(F)F)ccc31)NC2=O` [II-286]: the IC50 under setting [2] stood at 1.15 nM.
On to `C[S+]([O-])CC(=O)Nc1c2c(nn1CCC1CC1)C[C@]1(CCc3cc(OCC(F)(F)F)ccc31)NC2=O` (some centres unmarked) [II-39], for which, under setting [2], the IC50 stood at 42 nM.
The same measure, in the same setting: the figure for `O=C1N[C@]2(CCc3cc(OCC(F)(F)F)ccc32)Cc2nn(CCC3CC3)c(CNc3ccnc(O)n3)c21` [II-69] is 43.9 nM; for `CS(=O)(=O)CC(=O)Nc1c2c(nn1CCCCC(F)(F)F)C[C@@]1(CCc3cc(OCC(F)(F)F)ccc31)NC2=O` [II-19] it is 12 nM.
In the case of `Cc1cccc(-n2nc3c(c2NC(=O)CS(C)(=O)=O)C(=O)N[C@@]2(CCc4cc(OCC(F)(F)F)ccc42)C3)c1` [Compound I-98], the IC50 under setting [1] was determined as 8.5 nM.
As to `CS(=O)(=O)CC(=O)Nc1c2c(nn1-c1ccc(C#N)cn1)C[C@@]1(CCc3cc(N4CC(C(F)(F)F)C4)ccc31)NC2=O` [Compound I-122], under setting [1], the IC50 turned out to be 1.8 nM.
On the same count and under the same terms, for `CC(C)S(=O)(=O)NCc1c2c(nn1CCC1CC1)C[C@]1(CCc3cc(OCC(F)(F)F)ccc31)NC2=O` [Compound I-141] the value was 430 nM.
Take `N#Cc1ccc(-n2nc3c(c2C(=O)NCC2(C#N)CC2)C(=O)N[C@@]2(CCc4cc(OCC(F)(F)F)ccc42)C3)nc1` [II-190]: under setting [2], the IC50 came to 6.35 nM.
Same read-out and setting: the figure for `CS(=O)(=O)CC(=O)Nc1c2c(nn1CCC1CC1)C[C@@]1(NC2=O)c2ccc(OCC(F)(F)F)cc2CC1(F)F` [II-92] is 44.3 nM.
On the same count and under the same terms, the figure for `CS(=O)(=O)CC(=O)Nc1c2c(nn1-c1ccc(C#N)cn1)C1(Cc3cc(F)c(F)cc3C1)NC2=O` [II-4] is 32 nM.
Regarding `Cc1ccc(-n2nc3c(c2C(=O)NS(C)(=O)=O)C(=O)N[C@@]2(CCc4cc(OCC(F)(F)F)ccc42)C3)nc1` [II-238], the IC50 under setting [2] stood at 15 nM.
Take `CS(=O)(=O)CC(=O)Nc1c2c(nn1CCC1CC1)C[C@]1(CCc3cc(C(F)(F)F)ccc31)NC2=O` [Compound I-6]: the IC50 under setting [1] is 11.9 nM.
`CCOc1ccc2c(c1)CC[C@]21Cc2nn(-c3ccc(C)cn3)c(NC(=O)CS(C)(=O)=O)c2C(=O)N1` [II-159]: the IC50 under setting [2] is 7.02 nM.
Turning to `CC(C)(O)C(=O)NCc1c2c(nn1CCC1CC1)C[C@]1(CCc3cc(OCC(F)(F)F)ccc31)NC2=O` [Compound I-155], the IC50 under setting [1] came to 180 nM.
Consider `CC(C)(F)COc1ccc2c(c1)CC[C@@]21Cc2nn(CCCOC(F)(F)F)c(NC(=O)CS(C)(=O)=O)c2C(=O)N1` [II-236], for which, under setting [2], the IC50 turned out to be 5.34 nM.
Same read-out and setting: the figure for `COCCCn1nc2c(c1-c1nn[nH]n1)C(=O)N[C@@]1(CCc3cc(OCCCC(F)(F)F)ccc31)C2` [II-56] is 47 nM; for `C[C@@]1(c2ccc(OCC(F)(F)F)cc2F)Cc2nn(-c3ccc(F)c(F)c3)c(NC(=O)CS(C)(=O)=O)c2C(=O)N1` [II-96] it is 8.88 nM; for `CS(=O)(=O)CC(=O)Nc1c2c(nn1CCCOC(F)(F)F)C[C@@]1(CCc3cc(OCCCC(F)(F)F)ccc31)NC2=O` [II-277] it is 1 nM.
Same read-out and setting: for `CC(C)(C)c1cc(-n2nc3c(c2NC(=O)CS(C)(=O)=O)C(=O)N[C@@]2(CCOc4cc(OCC(F)(F)F)ccc42)C3)no1` [II-257] the value was 0.409 nM.
Turning to `CS(=O)(=O)CC(=O)Nc1c2c(nn1-c1ccc(C#N)cn1)C[C@]1(CCc3cc(N4CC(C(F)(F)F)C4)ccc31)NC2=O` [Compound I-168], the IC50 under setting [1] came to 5.9 nM.
`CS(=O)(=O)CC(=O)Nc1c2c(nn1-c1ccc(C#N)cn1)C[C@]1(CCc3cc(C4CC4)ccc31)NC2=O` [II-172]: under setting [2], the IC50 is 1.46 nM.
Consider `CS(=O)(=O)CC(=O)Nc1c2c(nn1-c1ccccn1)C[C@@]1(CCc3cc(OCC(F)(F)F)cc(F)c31)NC2=O` [Compound I-169], for which the IC50 under setting [1] worked out at 9.8 nM.
Consider `O=C1N[C@@]2(CCc3cc(OCC(F)(F)F)ccc32)Cc2nn(CCC3CC3)c(CNS(=O)(=O)C3CCC3)c21` [Compound I-143], for which the IC50 under setting [1] was found to be 510 nM.
Consider `Cc1ccc(-n2nc3c(c2NC(=O)CS(C)(=O)=O)C(=O)N[C@@]2(CCOc4cc(N5CC(F)(F)C5)ccc42)C3)nc1` [II-154], for which the IC50 under setting [2] is 5.58 nM.
Regarding `CS(=O)(=O)CC(=O)Nc1c2c(nn1CCOCC(F)F)C[C@]1(CCc3cc(OCCCC(F)(F)F)ccc31)NC2=O` [Compound I-53], under setting [1], the IC50 stood at 13 nM.
On the same count and under the same terms, the figure for `CCS(=O)(=O)NCc1c2c(nn1CCC1CC1)C[C@]1(CCc3cc(OCC(F)(F)F)ccc31)NC2=O` [Compound I-194] is 460 nM.
As to `N#Cc1ccc(-n2nc3c(c2C(=O)NCCS(N)(=O)=O)C(=O)N[C@@]2(CCc4cc(OCC(F)(F)F)ccc42)C3)nc1` [II-134], the IC50 under setting [2] was determined as 17.2 nM.
In the case of `O=C1N[C@@]2(CCc3cc(OCC(F)(F)F)ccc32)Cc2nn(CCC3CC3)c(C(=O)NS(=O)(=O)Cc3ccccc3)c21` [Compound I-119], the IC50 under setting [1] was determined as 150 nM.
Take `Cc1ccc(-n2nc3c(c2NC(=O)CS(C)(=O)=O)C(=O)N[C@](C)(c2ccc(OCC(C)(F)F)cc2F)C3)nc1` [II-208]: under setting [2], the IC50 came out at 3.09 nM.
On the same count and under the same terms, the figure for `CS(=O)(=O)CC(=O)Nc1c2c(nn1-c1ccncn1)C[C@]1(CCOc3cc(OCC(F)(F)F)ccc31)NC2=O` [II-7] is 20 nM; for `CS(=O)(=O)CC(=O)Nc1c2c(nn1-c1ccc(F)cc1)CC1(CN(c3ccc(C(F)(F)F)cc3)C1)NC2=O` [II-301] it is 15.9 nM; for `Cc1ccc(-n2nc3c(c2NC(=O)CS(C)(=O)=O)C(=O)N[C@@]2(CCc4cc(C(F)(F)F)ccc42)C3)nc1` [II-122] it is 5.68 nM.
Take `C=C(C)c1ccc(-n2nc3c(c2NC(=O)CS(C)(=O)=O)C(=O)N[C@@]2(CCc4cc(OCC(F)(F)F)ccc42)C3)nc1` [Compound I-233]: the IC50 under setting [1] is 11 nM.
Consider `Cc1cc(-n2nc3c(c2NC(=O)CS(C)(=O)=O)C(=O)N[C@](C)(c2ccc(OCCCC(F)(F)F)cc2F)C3)no1` [II-305], for which, under setting [2], the IC50 was found to be 1 nM.
The same measure, in the same setting: for `COCCS(=O)(=O)NC(=O)c1c2c(nn1-c1ccc(C)c(F)c1)C[C@]1(CCc3cc(OCC(F)(F)F)ccc31)NC2=O` [II-247] the value was 48.4 nM.
In the case of `O=C1N[C@@]2(CCc3cc(OCC(F)(F)F)ccc32)Cc2nn(CCC3CC3)c(CNS(=O)(=O)C3CC3)c21` [Compound I-195], the IC50 under setting [1] was found to be 450 nM.
On to `O=C(Nc1nn(CCC2CC2)c2c1C(=O)N[C@@]1(CCc3cc(OCCCC(F)(F)F)ccc31)C2)c1ccno1` [Compound I-1], for which the IC50 under setting [1] stood at 540 nM.
On the same count and under the same terms, for `CC(C)c1ccc(-n2nc3c(c2NC(=O)CS(C)(=O)=O)C(=O)N[C@@]2(CCc4cc(OCC(F)(F)F)ccc42)C3)nc1` [Compound I-238] the value was 10 nM; for `CS(=O)(=O)CC(=O)Nc1c2c(nn1CCC1CC1)C[C@]1(CCc3cc(Br)ccc31)NC2=O` [Compound I-36], 27 nM; for `CS(=O)(=O)CC(=O)Nc1c2c(nn1CC1CCCO1)C[C@]1(CCc3cc(OCCCC(F)(F)F)ccc31)NC2=O` (some centres unmarked) [Compound I-56], 25 nM.
Same read-out and setting: the figure for `O=C(Nc1c2c(nn1CCC1CC1)C[C@]1(CCc3cc(OCC(F)(F)F)ccc31)NC2=O)c1ccco1` [Compound I-220] is 35 nM.
